Our source for the Activity values is ChEMBL document CHEMBL1240316, “An oxidation-sensing mechanism is used by the global regulator MgrA in Staphylococcus aureus” (2006).

Structures are written as SMILES. Active and inactive are the calls of the source. The rule behind the calls is not given here.

Common to all, as to type: functional, organism-based
Assay [1] relates to Staphylococcus aureus. Kind of assay: Antimicrobial activity against Staphylococcus aureus expressing mgrA C12S mutant gene harboring Pyj335-His-mgrAC12S assessed as visible growth at 0.20 ug/ml after 24 hrs in presence of 100 uM hydrogen peroxide.
Assay [2] deals with Staphylococcus aureus. In words: Antimicrobial activity against Staphylococcus aureus expressing mgrA C12S mutant gene harboring plasmid Pyj335 assessed as visible growth at 0.75 ug/ml after 24 hrs.
The test system of assay [3] is Staphylococcus aureus. In words: Antimicrobial activity against Staphylococcus aureus expressing mgrA C12S mutant gene harboring Pyj335-His-mgrA assessed as visible growth at 0.35 ug/ml after 24 hrs.
Assay [4] concerns Staphylococcus aureus. In words: Antimicrobial activity against Staphylococcus aureus assessed as visible growth at 0.35 ug/ml after 24 hrs in presence of 20 uM paraquat.
The subject of assay [5] is Staphylococcus aureus. In words: Antimicrobial activity against Staphylococcus aureus expressing mgrA C12S mutant gene harboring Pyj335-His-mgrA assessed as visible growth at 0.55 ug/ml after 24 hrs in presence of 20 uM paraquat.
Assay [6] has as its system Staphylococcus aureus. Kind of assay: Antimicrobial activity against Staphylococcus aureus assessed as visible growth at 0.65 ug/ml after 24 hrs.
The subject of assay [7] is Staphylococcus aureus. Kind of assay: Antimicrobial activity against Staphylococcus aureus expressing mgrA C12S mutant gene harboring Pyj335-His-mgrA assessed as visible growth at 0.65 ug/ml after 24 hrs in presence of 20 uM paraquat.
For assay [8], the system named is Staphylococcus aureus. In words: Antimicrobial activity against Staphylococcus aureus expressing mgrA C12S mutant gene harboring Pyj335-His-mgrA assessed as visible growth at 0.55 ug/ml after 24 hrs.
The subject of assay [9] is Staphylococcus aureus. Kind of assay: Antimicrobial activity against Staphylococcus aureus expressing mgrA C12S mutant gene harboring plasmid Pyj335-His-mgrA assessed as visible growth at 0.45 ug/ml after 24 hrs in presence of 20 uM paraquat.
The subject of assay [10] is Staphylococcus aureus. In words: Antimicrobial activity against Staphylococcus aureus expressing mgrA C12S mutant gene assessed as visible growth at 0.35 ug/ml after 24 hrs in presence of 20 uM paraquat.
For assay [11], the system named is Staphylococcus aureus. In words: Antimicrobial activity against Staphylococcus aureus assessed as visible growth at 0.20 ug/ml after 24 hrs.
Assay [12] deals with Staphylococcus aureus. In words: Antimicrobial activity against Staphylococcus aureus expressing mgrA C12S mutant gene harboring plasmid Pyj335 assessed as visible growth at 0.65 ug/ml after 24 hrs in presence of 20 uM paraquat.
The subject of assay [13] is Staphylococcus aureus. Kind of assay: Antimicrobial activity against Staphylococcus aureus assessed as visible growth at 0.55 ug/ml after 24 hrs.
Assay [14] deals with Staphylococcus aureus. Kind of assay: Antimicrobial activity against Staphylococcus aureus expressing mgrA C12S mutant gene harboring Pyj335-His-mgrA assessed as visible growth at 0.75 ug/ml after 24 hrs.
For assay [15], the system named is Staphylococcus aureus. In words: Antimicrobial activity against Staphylococcus aureus expressing mgrA C12S mutant gene assessed as visible growth at 0.25 ug/ml after 24 hrs.
For assay [16], the system named is Staphylococcus aureus. Kind of assay: Antimicrobial activity against Staphylococcus aureus expressing mgrA C12S mutant gene assessed as visible growth at 0.75 ug/ml after 24 hrs in presence of 20 uM paraquat.
Assay [17] concerns Staphylococcus aureus. In words: Antimicrobial activity against Staphylococcus aureus assessed as visible growth at 1 ug/ml after 24 hrs.
The subject of assay [18] is Staphylococcus aureus. Kind of assay: Antimicrobial activity against Staphylococcus aureus expressing mgrA C12S mutant gene harboring Pyj335-His-mgrA C12S assessed as visible growth at 1.1 ug/ml after 24 hrs in presence of 100 uM hydrogen peroxide.
In assay [19] the test system is Staphylococcus aureus. Kind of assay: Antimicrobial activity against Staphylococcus aureus assessed as visible growth at 1.1 ug/ml after 24 hrs in presence of 25 uM paraquat.
For assay [20], the system named is Staphylococcus aureus. Kind of assay: Antimicrobial activity against Staphylococcus aureus expressing mgrA C12S mutant gene harboring Pyj335-His-mgrA assessed as visible growth at 2.2 ug/ml after 24 hrs in presence of 20 uM paraquat.
In assay [21] the test system is Staphylococcus aureus. Kind of assay: Antimicrobial activity against Staphylococcus aureus expressing mgrA C12S mutant gene harboring plasmid Pyj335 assessed as visible growth at 0.6 ug/ml after 24 hrs in presence of 20 uM paraquat.
Assay [22] has as its system Staphylococcus aureus. In words: Antimicrobial activity against Staphylococcus aureus assessed as visible growth at 2.2 ug/ml after 24 hrs.
In assay [23] the test system is Staphylococcus aureus. Kind of assay: Antimicrobial activity against Staphylococcus aureus expressing mgrA C12S mutant gene assessed as visible growth at 0.6 ug/ml after 24 hrs.
Assay [24] concerns Staphylococcus aureus. In words: Antimicrobial activity against Staphylococcus aureus expressing mgrA C12S mutant gene harboring plasmid Pyj335 assessed as visible growth at 1 ug/ml after 24 hrs.
Assay [25] deals with Staphylococcus aureus. Kind of assay: Antimicrobial activity against Staphylococcus aureus expressing mgrA C12S mutant gene harboring plasmid Pyj335 assessed as visible growth at 1.4 ug/ml after 24 hrs in presence of 20 uM paraquat.
Assay [26] deals with Staphylococcus aureus. In words: Antimicrobial activity against Staphylococcus aureus assessed as visible growth at 1.1 ug/ml after 24 hrs in presence of 100 uM hydrogen peroxide.
For assay [27], the system named is Staphylococcus aureus. Kind of assay: Antimicrobial activity against Staphylococcus aureus expressing mgrA C12S mutant gene assessed as visible growth at 2.6 ug/ml after 24 hrs.
In assay [28] the test system is Staphylococcus aureus. In words: Antimicrobial activity against Staphylococcus aureus expressing mgrA C12S mutant gene harboring plasmid Pyj335-His-mgrA assessed as visible growth at 1.1 ug/ml after 24 hrs in presence of 100 uM hydrogen peroxide.
Assay [29] relates to Staphylococcus aureus. In words: Antimicrobial activity against Staphylococcus aureus expressing mgrA C12S mutant gene harboring Pyj335-His-mgrA assessed as visible growth at 2.6 ug/ml after 24 hrs in presence of 20 uM paraquat.
Assay [30] has as its system Staphylococcus aureus. Kind of assay: Antimicrobial activity against Staphylococcus aureus expressing mgrA C12S mutant gene harboring plasmid Pyj335 assessed as visible growth at 2.6 ug/ml after 24 hrs.
For assay [31], the system named is Staphylococcus aureus. In words: Antimicrobial activity against Staphylococcus aureus expressing mgrAC12S mutant gene harboring plasmid Pyj335 assessed as visible growth at 1.1 ug/ml after 24 hrs in presence of 100 uM hydrogen peroxide.
The test system of assay [32] is Staphylococcus aureus. Kind of assay: Antimicrobial activity against Staphylococcus aureus expressing mgrA C12S mutant gene harboring Pyj335-His-mgrA assessed as visible growth at 1 ug/ml after 24 hrs.
For assay [33], the system named is Staphylococcus aureus. Kind of assay: Antimicrobial activity against Staphylococcus aureus expressing mgrA C12S mutant gene assessed as visible growth at 0.6 ug/ml after 24 hrs in presence of 20 uM paraquat.
Assay [34] deals with Staphylococcus aureus. In words: Antimicrobial activity against Staphylococcus aureus expressing mgrA C12S mutant gene assessed as visible growth at 1 ug/ml after 24 hrs.
The test system of assay [35] is Staphylococcus aureus. In words: Antimicrobial activity against Staphylococcus aureus expressing mgrA C12S mutant gene harboring plasmid Pyj335 assessed as visible growth at 2.2 ug/ml after 24 hrs in presence of 20 uM paraquat.
Assay [36] relates to Staphylococcus aureus. Kind of assay: Antimicrobial activity against Staphylococcus aureus expressing mgrA C12S mutant gene harboring Pyj335-His-mgrA assessed as visible growth at 2.2 ug/ml after 24 hrs.
In assay [37] the test system is Staphylococcus aureus. Kind of assay: Antimicrobial activity against Staphylococcus aureus expressing mgrA C12S mutant gene harboring plasmid Pyj335 assessed as visible growth at 1.8 ug/ml after 24 hrs in presence of 20 uM paraquat.
The subject of assay [38] is Staphylococcus aureus. In words: Antimicrobial activity against Staphylococcus aureus expressing mgrA C12S mutant gene assessed as visible growth at 1.8 ug/ml after 24 hrs in presence of 20 uM paraquat.

As for `O=C(O)c1cn(C2CC2)c2cc(N3CCNCC3)c(F)cc2c1=O` [CIPROFLOXACIN], the result in assay [1], in assay [2], in assay [3], in assay [6], in [7] and in assay [8] was Active. For the same molecule, the result in assay [11], in assay [13], in assay [14] and in assay [16] was Active. For the same molecule, the outcome in assay [4], in assay [5], in assay [9], in assay [10], in assay [12] and in [15] was inactive.
As for `CN[C@H](CC(C)C)C(=O)N[C@H]1C(=O)N[C@@H](CC(N)=O)C(=O)N[C@H]2C(=O)N[C@H]3C(=O)N[C@H](C(=O)N[C@H](C(=O)O)c4cc(O)cc(O)c4-c4cc3ccc4O)[C@H](O)c3ccc(c(Cl)c3)Oc3cc2cc(c3O[C@@H]2O[C@H](CO)[C@@H](O)[C@H](O)[C@H]2O[C@H]2C[C@](C)(N)[C@H](O)[C@H](C)O2)Oc2ccc(cc2Cl)[C@H]1O` [VANCOMYCIN], the outcome in [17], in assay [21], in [23], in assay [24], in assay [25] and in assay [31] was inactive. Further, the outcome in assay [32], in assay [33], in [34], in assay [35], in assay [37] and in [38] was inactive. The result in [18], in [19], in assay [20], in [22], in assay [26] and in assay [27] was Active. Further, the result in assay [28], in [29], in assay [30] and in assay [36] was Active.
